Consider four compounds from patent publication US9573967B2, “N-heterocyclic carbene gold complexes with anticancer properties and methods of use thereof” (KING FAHD UNIVERSITY OF PETROLEUM AND MINERALS, priority 2015, dated 2017).

What all share (assay type): cell-based
Assay [1] deals with HeLa (human cervical cancer) cell line. The assay can be described thus: In vitro cytotoxicity, MTT assay, HeLa. Conditions: 24 h incubation with complex, read-out: IC50 values against HeLa cancer cell line. The procedure:
(§1) The in vitro cytotoxicity tests were carried out for the gold(I) precursor, labeled as complex 0 and the three synthesized complexes labeled as complex 1, 2 and 3 and compared with cisplatin (standard classical anticancer drug) against three human cancer cell lines, HCT15, HeLa and A549 using MTT assay. The dose dependent cytotoxic effect was obtained by the stipulated increase in concentrations of cisplatin and gold complexes 0-3 against the fixed number of human cancer cells. The IC50 concentration of cisplatin and complexes 0-3 for different human cancer cell lines was obtained from a curve between compound concentration and percentage viability of cells (FIGS. 5-10, Table 6).
(§2) In phase contrast micrographs, a decreasing cell density and deformed cellular morphology could be observed with increasing concentration of complexes 0-3 (FIGS. 11-13). […] The IC50 concentrations of gold complexes were calculated from a separate curve between complex concentration and % viability of cells plotted in Microsoft Excel 2007 (graphs not shown) using MTT assay data and explained by logarithmic regression equations (equations not shown).
(§3) The metal precursor (complex 0) and the three synthesized compounds 1-3 were evaluated for their in vitro cytotoxic activity against HCT15 (human cancer), HeLa (human cervical cancer) and A549 (human lung carcinoma) cell lines. […]

Assay [2] relates to A549 (human lung carcinoma) cell line. The experiment in a line: In vitro cytotoxicity, MTT assay, A549. Conditions: 24 h incubation with complex, read-out: IC50 values against A549 cancer cell line. The procedure:
as §1, §2, §3

The subject of assay [3] is HCT15 (human cancer) cell line. The assay can be described thus: In vitro cytotoxicity, MTT assay, HCT15. Conditions: for IC50: MTT assay, 24 h incubation with complex, read-out: IC50 values against HCT15 cancer cell line; for IC50 against HCT15 compared with cisplatin: in words. The procedure: as §1
In phase contrast micrographs, a decreasing cell density and deformed cellular morphology could be observed with increasing concentration of complexes 0-3 (FIGS. 11-13). The dose dependent decrease in cell density was further supported by assessment of decreasing percent cell viability in MTT assay (FIGS. 5-10). The IC50 concentrations of gold complexes were calculated from a separate curve between complex concentration and % viability of cells plotted in Microsoft Excel 2007 (graphs not shown) using MTT assay data and explained by logarithmic regression equations (equations not shown).
The metal precursor (complex 0) and the three synthesized compounds 1-3 were evaluated for their in vitro cytotoxic activity against HCT15 (human cancer), HeLa (human cervical cancer) and A549 (human lung carcinoma) cell lines. The cells were seeded at 4×10^3 cells/well in 100 μL DMEM (Dulbecco's Modified Eagle's Medium) containing 10%. FBS (Fetal Bovine Serum) in 96-wells tissue culture plate and incubated for 72 h at 37° C., 5% CO2 in air and 90% relative humidity in CO2 incubator. After incubation, 100 μL of 50, 25, 12.5 and 6.25 μg/mL solutions of complexes (0-3), prepared in DMEM, were added to cells and the cultures were incubated for 24 h. The medium of wells was discarded and 100 μL DMEM containing MTT (3-(4,5-dimethylthiazol-2-yl)-2,5-diphenyltetrazolium bromide) (5 mg/mL) was added to the wells and incubated in CO2 incubator at 37° C. in dark for 4 h. After incubation, a purple colored formazan (artificial chromogenic dye, product of the reduction of water insoluble tetrazolium salts e.g., MMT by dehydrogenases and reductases) in the cells is produced and appeared as dark crystals in the bottom of the wells. The medium of culture was discarded from each well carefully to avoid disruption of monolayer and 100 μl of dimethyl sulfoxide (DMSO) was added in each well. […] The absorbance of the 96-wells plate was taken at 570 nm with Labsystems Multiskan EX-Enzyme-linked immunosorbent assay (EX-ELISA) reader against a reagent blank.

Regarding “1,3-Bis(2,6-di-isopropylphenyl)imidazol-2-ylidenegold(I)chloride [Complex 0]”, the IC50 in assay [1] is 172 µM; in assay [2], 180 µM; in assay [3], 122 µM.
As for `CCN(CC)C(=S)[S][Au][CH]1N(c2c(C(C)C)cccc2C(C)C)C=CN1c1c(C(C)C)cccc1C(C)C` [Complex 2, [Au(Ipr)(S2CN(C2H5)2)]], the “IC50 against HCT15 compared with cisplatin” value in assay [3] is given as “moderate potency but better than cisplatin”.
Consider `N.N.[Cl][Pt][Cl]` [Cisplatin, cisplatin], for which, in assay [3], the IC50 was 29.5 µM.
Regarding `CC(C)c1cccc(C(C)C)c1N1C=CN(c2c(C(C)C)cccc2C(C)C)[CH]1[Au][S]C(=S)N(Cc1ccccc1)Cc1ccccc1` [Complex 3, [Au(Ipr)(S2CN(C7H7)2)]], the “IC50 against HCT15 compared with cisplatin” value in assay [3] was “moderate potency but better than cisplatin”.
